Results: patent US20040177664A1, “Production of a high quality organic-based fertilizer” (priority 2003, published 2004)
Values joined by “and” are separate entries in the source; they are usually repeats but may differ in a detail not shown here. Identical values can stand only once.

Key:
[1] = Odor reduction of municipal sludge, headspace GC-MS and odor; set-up: reducing odor / Relative reduction of peak area: concentration or dose not given beside the values; conditions: for reducing odor: oxidizing agents, general statement
Description: Effectiveness of the treatments was evaluated through the GC-MS analysis of the treated and untreated sludge. Sludge (5.0 g) was placed into a 44 ml vial. After heating to 60.0° C. for 5.0 minutes a probe of gas was taken from the vial (0.5 ml) and injected into the GC-MS.
Hewlett-Packard (HP) GC 5890 coupled with an HP 5971 mass-spectrometer. The system incorporates an electron beam as an ion source. Ions are filtered through a glass with silver-coated quadruples.
A DB5MS capillary chromatographic column is used and the MS is tuned with PFTBA in a Scan Mode (tune file: BFB.U).
For further characterization the peak area of the 94-ion was selected. The calibration was performed using dimethyldisulfide. A calibration curve is presented in the attached data.
In the first series, 6.00 g (±0.05) of the sludge with the addition of 10.0 ml of distilled water was used. For the treatment, we used potential oxidizers such as KNO3 and H2SO4 in different combinations.
In the second series we used 5.00 g (±0.01) of the sludge with no dilution. For the treatment we used additions of hydrogen peroxide (30%) −0.5 ml, sulfuric acid (98%), −0.5 ml, a combination of hydrogen peroxide and 0.5 ml and sulfuric acid 0. ml, ammonia (54%) −0.5ml, calcium hypochlorite −0.5 g.
The effectiveness of the additions is evaluated through decreasing the area of 94-ion signal with retention time around 1.94 minutes. We also investigated the influence of time.
The samples of the sludge (approximately 5.0 g) were placed into the vials and treated with additions of CaOCl2 at a temperature of 60.0° C.
The reproducibility of the treatment with calcium hypochlorite Ca(OCl)2 (CHC) on sludge was investigated. In all experiments, 5.0 g of sludge in a special vial was treated with an addition of percent of weight of odor reducer (0.05 g). After heating to 60.0° C. for 5.0 minutes, a sample of vapor over the sludge was taken and injected into the GC/MS. Total Ion Chromatograph signal with retention time […] were used for evaluation of the treatment corresponding to dimethylsulfide).

[2] = Influence of additives on sludge pH; assay type: physicochemical; conditions: for sludge pH: 0.5 g of each additive on about 5 g sludge
Description: The influence of different additives on the sludge pH was also evaluated.
Influence of Additives on Sludge PH
Treatments with urea, CaSO4, CaO

| SMILES | reducing odor [1] [%] | effect on sludge pH [2] | sludge pH [2] | other results |
| --- | --- | --- | --- | --- |
| [Ca+2].[O-]Cl.[O-]Cl [CaOCl2, calcium hypochlorite] | 98 | does not affect the sludge pH |  | Relative reduction of peak area ([1]; against untreated sludge 376025): 97.98% and 96.16% and 98.54% and 96.59% and 98.86% and 99.03% and 99.17% and 99.47%; Average Relative Reduction of the peak area ([1]; eight replicates, confidence interval 95%): 98.23% and 98.23±0.85% |
| [K+].[O-]Cl [potassium hypochlorite] | 98 |  |  |  |
| [O]=[Ca] [CaO, calcium oxide] |  |  | 11.5 and 11.65 | sludge pH ([2]; listed as calcium oxide): 11.8 |
| NC(N)=O [Urea] |  |  | 8.32 and 8.45 |  |
| O=S(=O)([O-])[O-].[Ca+2] [CaSO4, Calcium sulfate] |  | does not change the sludge pH | 6.3 and 6.25 |  |
